# Target: T1, binding between ALS-related mutant SOD1 (Flag-SOD1 G93A) and Derlin-1 (Derlin-1-HA) (Homo sapiens, UniProt P00441+Q9BUN8, G94A)
# T1 construct: expressed in transfected cells; host or cells: HEK293A
# Experiment: Cell-based co-immunoprecipitation assay of mutant SOD1 (G93A)-Derlin-1 binding
# Design: key to Activity value (score): a compound exhibiting no inhibitory activity is set at 0; a compound exhibiting inhibitory activity is set at 1; a compound exhibiting significant inhibitory activity is set at 2; a compound having higher inhibitory activity than the compound of Example 1 is set at 3
# Conditions: for Activity value (score): HEK293A cells overexpressing Flag-SOD1 G93A and Derlin-1-HA
# Experimental: As cells, human embryonic kidney-derived, Human Embryonic Kidney 293A (HEK293A) cells were used. The cells were cultured in High Glucose Dulbecco's modified Eagle's medium (DMEM: 4.5 mg/ml glucose, Sigma) supplemented with complement-inactivated 10% fetal bovine serum (FBS, Vitromex) and 100 units/mL Penicillin G (Meiji), which was placed in an incubator set at conditions of 37° C. and 5% CO2.
# Transfection into the HEK293A cells was carried out using PEI-Max (Polyscience) at a ratio of 3 μL of PEI-Max to 1 μg of plasmid. DMEM was mixed with PEI-Max, and the mixture was then left at rest for 5 minutes. Thereafter, the reaction mixture was added to the plasmid DNA dissolved in DMEM, and the thus obtained mixture was further left at rest for 15 minutes. After seeding, the culture was carried out for 12 to 24 hours, and the resultant was then added to a culture medium of cells, in which the medium had been exchanged with DMEM supplemented only with 10% FBS.
# pcDNA3.0-Derlin-1-HA, pcDNA3.0-Flag-SOD1 G93A, and 123 types of other mutants.
# In the lysis of HEK293A cells for use in a co-immunoprecipitation experiment, an IP lysis buffer (20 mM Tris-HCl (pH 7.5), 150 mM NaCl, 10 mM EDTA (pH 8.0), 1% Triton-X 100, 5 μg/mL leupeptin, and 1 mM phenylmethylsulfonyl fluoride) was used.
# After the transfection on a 24-well plate, the cells were cultured for 12 hours or 24 hours, and the obtained cell culture was exchanged with 200 μL of medium. Thereafter, 1% DMSO or various types of compounds having each different concentration were added into the culture. Thirty-six hours or twenty-four hours later, the cells were incubated in the IP lysis buffer (300 μL/well) at 4° C. for 25 minutes, so that the cells were lysed. The cell lysate was centrifuged at 4° C. at 15000 rpm for 10 minutes, and a supernatant was then recovered. To this supernatant, Anti-Flag M2 affinity gel was added in a liquid amount of 20 μL, and they were allowed to react with each other by subjecting the obtained mixture to inversion mixing at 4° C. for 25 minutes. After completion of the reaction, a supernatant was removed, and the residue was washed twice with High salt wash buffer (1% Triton X 100, 500 mM NaCl, 20 mM Tris-HCl (pH 7.5), and 5 mM EGTA), and was then washed once with Low salt wash buffer (150 mM NaCl, 20 mM Tris-HCl (pH 7.5), and 5 mM EGTA). Finally, 50 μL of a 2×SDS sample buffer was added to the resultant, and the obtained mixture was then boiled at 98° C. for 3 minutes to obtain an SDS-PAGE sample. Regarding the lysate, a 2×SDS sample buffer was added in an amount equal to the supernatant, and the obtained mixture was then boiled at 98° C. for 3 minutes to obtain an SDS-PAGE sample.
# After completion of SDS-PAGE, a protein was transferred from the gel into a polyvinylidene difluoride membrane (PVDF) ([…], Pall), and was then blocked with TBS-T (150 mM NaCl, 50 mM Tris-HCl (pH 8.0), and 0.05% Tween 20) supplemented with 5% skimmed milk at room temperature for 2 hours or more. Thereafter, a primary antibody diluted with TBS-T supplemented with 5% bovine serum albumin and 0.1% NaN3 was allowed to bind to each molecule on the PVDF membrane at 4° C. for 12 hours or more. After completion of the reaction, a secondary antibody (HRP-linked 2nd antibody) diluted with TBS-T supplemented with 5% skimmed milk was allowed to bind to the primary antibody at room temperature for 1 hour. Thereafter, the resultant was washed with TBS-T for 15 minutes, 3 or more times, and detection was then carried out using an enhanced chemiluminescence (ECL) system.
# With regard to the compounds of the present invention (Example Compound 1 to Example Compound 47), whether or not the present compound can inhibit the binding between ALS-related mutant SOD1 and Derlin-1 in a cell by being added into a cell culture solution was examined according to a co-immunoprecipitation experiment. […]
# T1 sequence (P00441 whole entry G94A, species assumed): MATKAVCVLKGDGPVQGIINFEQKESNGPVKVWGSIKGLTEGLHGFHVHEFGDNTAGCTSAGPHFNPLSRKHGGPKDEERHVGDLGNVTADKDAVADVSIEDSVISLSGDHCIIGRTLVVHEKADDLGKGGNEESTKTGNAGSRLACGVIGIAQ
# T1 sequence (Q9BUN8 whole entry, species assumed, stated change not applied): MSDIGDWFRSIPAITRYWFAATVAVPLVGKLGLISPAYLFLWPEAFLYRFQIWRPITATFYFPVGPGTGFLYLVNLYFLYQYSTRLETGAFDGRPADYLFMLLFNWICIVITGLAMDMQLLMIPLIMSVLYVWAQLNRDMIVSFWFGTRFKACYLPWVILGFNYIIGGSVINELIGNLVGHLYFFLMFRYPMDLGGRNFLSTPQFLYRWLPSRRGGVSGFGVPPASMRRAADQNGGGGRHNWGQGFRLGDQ
Compound,Activity value (score) (assay concentration 20 μM),other results
"C#CCCCOCC=CCN(C(=O)c1sc2nc(-c3cccnc3)ccc2c1N)c1ccccc1 (stereo in doubt) [Example 38, 3-amino-N-((E)-4-(pent-4-ynyloxy)but-2-enyl)-N-phenyl-6-(3-pyridinyl)thieno[2,3-b]pyridine-2-carboxamide]",2,–
"C#CCN(C(=O)c1sc2nc(-c3cccnc3)ccc2c1N)c1ccccc1 [Example 2, N-propargyl-3-amino-N-phenyl-6-(3-pyridinyl)thieno[2,3-b]pyridine-2-carboxamide]",2,–
"Nc1c(C(=O)N2CCCc3ccccc32)sc2nc(-c3cccnc3)ccc12 [Example 3, (3-Amino-6-(3-pyridinyl)thieno[2,3-b]2-pyridinyl)(3,4-dihydro-1(2H)-quinolyl)methanone]",2,–
"Nc1c(C(=O)Nc2ccncc2)sc2nc(-c3cccnc3)ccc12 [Example 4, 3-amino-N-(4-pyridinyl)-6-(3-pyridinyl)thieno[2,3-b]pyridine-2-carboxamide]",–,"binding between mutant SOD1 and Derlin-1 (co-precipitated Derlin-1, IB:HA band) (0.625 μM, 1.25 μM, 2.5 μM and 5 μM added to HEK293A cell culture, FIG. 1): the binding between mutant SOD1 and Derlin-1 was inhibited; Activity value (score) (assay concentration 5 μM): 2"
"C/C=C/CN(C(=O)c1sc2nc(-c3cccnc3)ccc2c1N)c1ccccc1 [Example 5, 3-amino-N-(trans-2-butenyl)-N-phenyl-6-(3-pyridinyl)thieno[2,3-b]pyridine-2-carboxamide]",–,Activity value (score) (assay concentration 10 μM): 2
"Nc1c(C(=O)Nc2ccncc2)sc2nc(-c3ccccn3)ccc12 [Example 6, 3-amino-N-(4-pyridinyl)-6-(2-pyridinyl)thieno[2,3-b]pyridine-2-carboxamide]",–,Activity value (score) (assay concentration 2.6 μM): 1
Nc1c(C(=O)Nc2ccc(-c3cc(C(F)(F)F)cc(C(F)(F)F)c3)cc2)sc2nc(-c3ccncc3)ccc12 [Example 7],–,Activity value (score) (assay concentration 2.6 μM): 1
"C=CCN(C(=O)c1sc2nc(-c3ccncc3)ccc2c1N)c1cc(F)ccc1F [Example 8, N-allyl-3-amino-N-(2,5-difluorophenyl)-6-(4-pyridinyl)thieno[2,3-b]pyridine-2-carboxamide]",–,Activity value (score) (assay concentration 5 μM): 1
"CC#CCN(C(=O)c1sc2nc(-c3cccnc3)ccc2c1N)c1ccccc1 [Example 9, 3-amino-N-(2-butynyl)-N-phenyl-6-(3-pyridinyl)thieno[2,3-b]pyridine-2-carboxamide]",–,Activity value (score) (assay concentration 5 μM): 1
"CCCN(C(=O)c1sc2nc(-c3cccnc3)ccc2c1N)c1ccccc1 [Example 10, N-n-propyl-3-amino-N-phenyl-6-(3-pyridinyl)thieno[2,3-b]pyridine-2-carboxamide]",2,–
"CCCN(C(=O)c1sc2nc(-c3cccnc3)ccc2c1N)c1ccc(F)c(F)c1F [Example 11, N-n-propyl-3-amino-N-(2,3,4-trifluorophenyl)-6-(3-pyridinyl)thieno[2,3-b]pyridine-2-carboxamide]",2,–
"C=CCN(C(=O)c1sc2nc(-c3cccnc3)ccc2c1N)c1ccc(I)cc1 [Example 12, N-allyl-3-amino-N-(4-iodophenyl)-6-(3-pyridinyl)thieno[2,3-b]pyridine-2-carboxamide]",2,–
"CC(C)=CCN(C(=O)c1sc2nc(-c3cccnc3)ccc2c1N)c1ccccc1 [Example 13, N-(3-methyl-2-butenyl)-3-amino-N-phenyl-6-(3-pyridinyl)thieno[2,3-b]pyridine-2-carboxamide]",2,–
"Nc1c(C(=O)N2CCCCc3ccccc32)sc2nc(-c3cccnc3)ccc12 [Example 14, [3-amino-6-(3-pyridinyl)thieno[2,3-b]2-pyridinyl](2,3,4,5-tetrahydro-1H-benzo[b]azepin-1-yl)methanone]",2,–
"C=CCN(C(=O)c1sc2nc(-c3cccnc3)ccc2c1N)c1ccc(F)cc1F [Example 15, N-allyl-3-amino-N-(2,4-difluorophenyl)-6-(3-pyridinyl)thieno[2,3-b]pyridine-2-carboxamide]",2,–
"C=CCN(C(=O)c1sc2nc(-c3cccnc3)ccc2c1N)c1cccc(F)c1F [Example 16, N-allyl-3-amino-N-(2,3-difluorophenyl)-6-(3-pyridinyl)thieno[2,3-b]pyridine-2-carboxamide]",2,–
"C=CCN(C(=O)c1sc2nc(-c3cccnc3)ccc2c1N)c1cc(F)ccc1F [Example 17, N-allyl-3-amino-N-(2,5-difluorophenyl)-6-(3-pyridinyl)thieno[2,3-b]pyridine-2-carboxamide]",2,–
"C=CCN(C(=O)c1sc2nc(-c3cccnc3)ccc2c1N)c1cc(F)ccc1C [Example 18, N-allyl-3-amino-N-(5-fluoro-2-methylphenyl)-6-(3-pyridinyl)thieno[2,3-b]pyridine-2-carboxamide]",2,–
"C=CCN(C(=O)c1sc2nc(-c3ccncc3)ccc2c1N)c1ccc(F)c(F)c1 [Example 19, N-allyl-3-amino-N-(3,4-difluorophenyl)-6-(4-pyridinyl)thieno[2,3-b]pyridine-2-carboxamide]",2,–
"C=CCN(C(=O)c1sc2nc(-c3cccnc3)ccc2c1N)c1cc(F)cc(F)c1 [Example 20, N-allyl-3-amino-N-(3,5-difluorophenyl)-6-(3-pyridinyl)thieno[2,3-b]pyridine-2-carboxamide]",2,–
"C=CCN(C(=O)c1sc2nc(-c3cccnc3)ccc2c1N)c1cccc(S(F)(F)(F)(F)F)c1 [Example 21, N-allyl-3-amino-N-(3-(pentafluoro-λ^6-sulfanyl)phenyl)-6-(3-pyridinyl)thieno[2,3-b]pyridine-2-carboxamide]",2,–
"C=CCN(C(=O)c1sc2nc(-c3ccncc3)ccc2c1N)c1cc(F)cc(F)c1 [Example 22, N-allyl-3-amino-N-(3,5-difluorophenyl)-6-(4-pyridinyl)thieno[2,3-b]pyridine-2-carboxamide]",2,–
"C=CCN(C(=O)c1sc2nc(-c3ccncc3)ccc2c1N)c1cccc(S(F)(F)(F)(F)F)c1 [Example 23, N-allyl-3-amino-N-(3-(pentafluoro-λ^6-sulfanyl)phenyl)-6-(4-pyridinyl)thieno[2,3-b]pyridine-2-carboxamide]",2,–
Nc1c(C(=O)Nc2cccc3ccccc23)sc2nc(-c3cccnc3)ccc12 [Example 24],1,–
"Cc1cccc(C)c1NC(=O)c1sc2nc(-c3cccnc3)ccc2c1N [Example 25, 3-amino-N-(2,6-dimethylphenyl)-6-(3-pyridinyl)thieno[2,3-b]pyridine-2-carboxamide]",1,–

# Source: US10689394B2, “Thieno[2,3-b]pyridine derivative, quinoline derivative, and use thereof” (The University of Tokyo, priority 2016, dated 2020)
